{
  "source": "patent US12275685B2",
  "about": "“Oligo-benzamide analogs and their use in cancer treatment” (Board of Regents, The University of Texas System, priority 2018, dated 2025)",
  "key": {"[1]": {"system": "estrogen receptor-positive breast cancer", "experiment": "Growth inhibition of ER-positive breast cancer", "format": "cell-based"}, "[2]": {"system": "BC cells expressing MT-ERα (MCF-7, ZR-75, T47-D)", "experiment": "Cell titer glo antiproliferative assay in MT-ERα BC cells", "format": "cell-based", "excerpt": "(§1) FIG. 52: Comparative efficacy of TX-542 and SERDs in BC cells expressing WT and/or MT ERα: Using CRISPR-Cas9, both copies of WT ERα genes were knocked out in ZR-75 and T47-D, while only one copy of WT Era was knocked out in MCF-7 cells. Following knockout of WT ERα clones with stable expression of either Y537S ERα MT or the D538G ERα MT were selected. […] ERα-negative TNBC cells (SUM-159 and MDA-MB-231) were used as controls. Dose response curves were generated for ERX-11, TX-542 and SERDs using cell titer glo assays. IC50 values for each cell line and drug were calculated and tabulated. Tam=tamoxifen, ICI=fulvestrant, GDC-0810=Genentech SERD, AZD-9496 Astra Zeneca SERD, RAD-1901=Radius SERD, Palbo=Palbociclib. IC50 values<50 nM are shown in red.\n(§2) TX-542. TX-542 was potent (IC50˜20-50 nM) as an antiproliferative agent against expressing MT-ERα, both in genetically modified MCF-7 cells with one WT-ERα allele and one MT-ERα allele introduced by CRISPR and genetically modified ZR-75 or T47-D cells in which both copies of WT-ERα alleles were replaced using CRISPR with MT-ERα. TX-542 had no activity against ER-null (SUM-159 or MDA-MB-231 cells) or non-tumorigenic breast epithelial cells, such as human mammary epithelial cells (HMEC). […] In addition, these agents are not able to consistently target all the MT-ERα forms in distinct genetic contexts, as shown in FIG. 52 and as reported by others."}, "[3]": {"system": "ER-null (SUM-159 or MDA-MB-231 cells)", "experiment": "Antiproliferative assay in ER-null cells", "format": "cell-based", "excerpt": "as §1, §2"}, "[4]": {"system": "human mammary epithelial cells (HMEC)", "experiment": "Antiproliferative assay of TX-542 in HMEC", "format": "cell-based", "protocol": "as §2"}, "[5]": {"experiment": "Protein binding", "format": "in vitro ADME"}, "[6]": {"system": "BC cells expressing WT-ERα and MT-ERα", "experiment": "Clonogenic assay", "format": "cell-based", "details": "100 nM", "protocol": "FIG. 53: Effect of 100 nM TX-542 on clonogenic survival of WT-ERα and MT-ERα BC cell lines.\n(§3) The 200 nM dose for these drugs reflects the level at which each of these drugs has a significant effect on spheroid formation in the MCF-7 WT-ERa cells. Taken together, these studies indicate that TX-542 has significant activity against both WT-ERα and MT-ERα driven ERα+ BC cell lines and is a worthwhile candidate for further study."}, "[7]": {"system": "MCF-7 MT-ERα Y537S cells", "format": "cell-based", "details": "200 nM"}, "[8]": {"system": "MT-ERα expressing BC cells", "experiment": "Apoptosis by annexin staining", "format": "cell-based", "details": "within 72 h after treatment, 200 nM", "protocol": "FIG. 55: Effect of 200 nM TX-542 on apoptosis of MT-ERα expressing BC cells.\nas §3"}, "[9]": {"system": "MCF-7 MT-ERα Y537S and D538G cells", "format": "cell-based", "details": "comparators at 200 nM in MCF-7 MT-ERα Y537S cells"}, "[10]": {"experiment": "Pharmacokinetic profile of TX-542", "format": "in vivo", "protocol": "FIG. 58: PK properties of TX-542 indicate a half-life in plasma of 8 h and accumulation over time in tumor.\n(§4) To establish the pharmacokinetic (PK) profile of TX-542, the inventors worked with the UTSW preclinical pharmacology core to characterize pharmacologic properties of TX-542 (FIG. 58). These studies indicated an 8-h half-life of TX-542 in the plasma, with drug detectable in both the liver and kidney after intraperitoneal (i.p.) administration."}, "[11]": {"system": "WT-ERα ZR-75 or MT-ERα MCF-7 xenografts", "experiment": "TX-542 in ERα BC xenografts", "format": "in vivo, nude mice", "protocol": "FIGS. 59A-B: MCF-7 MT-ERa D538G and Y537S xenograft tumors were injected into the mammary fat pad of nude mice. Once the tumors were established (100 mm^3), treatment with either vehicle or TX-542 (10 mg/kg/ip) was commenced and their effect on tumor growth and mice body weights were graphed (n=9 per group).\nas §4"}, "[12]": {"system": "ERα", "format": "cell-based", "details": "MT-ERα, 200 nM"}, "[13]": {"system": "MT-ERα", "experiment": "ERE luciferase reporter gene assay, TX-542", "format": "cell-based", "details": "minimal promoter with three copies of ERE"}, "[14]": {"system": "MT-ERα", "experiment": "ChIP of MT-ERα DNA binding, TX-542", "format": "cell-based"}, "[15]": {"system": "BC cells expressing MT-ERα", "experiment": "Boyden chamber invasion assay", "format": "cell-based", "excerpt": "FIG. 62: Effect of TX-542 on invasiveness of BC cells expressing Erα mutants in a Boyden chamber assay.\n(§5) Since MT-ERα is primarily expressed in metastases, the inventors used metastatic models to evaluate effect of TX-542 on the development and progression of metastasis."}, "[16]": {"system": "MT-ERα expressing BC metastasis", "experiment": "Metastatic models (intracardiac, intratibial injection)", "format": "in vivo, mice", "protocol": "FIG. 63: Following intracardiac injection of luciferase-tagged ZR-75 MT-ERα Y537S tumors, mice are imaged five at a time under 2% isoflurane gas anesthesia. Each mouse is injected with D-Luciferin and imaged 10-15 minutes after the injection. BLI signal is quantified in regions of interest (ROIs) drawn around tumors, specific areas (for example cranial, thoracic or abdominal), whole body or tissues ex vivo and the signal is expressed as photons per second, representing the flux radiating omni-directionally from the user-defined region. Images are analyzed using Living Image 4.3.1 (PerkinElmer, Waltham, MA) software. Once the tumors were established (40,000 luminescene counts at 30 seconds exposure), mice were treated either with vehicle or TX-542. […] Relative luminescence counts are mapped (middle panel). Mice were sacrificed once symptomatic and the survival curves for vehicle treated (black) or TX-542 treated (red) are graphed (right panel) (n=6 in each group).\nOnce tumors were established, daily treatment of mice with either vehicle or TX-542 (10 mg/kg/ip) were performed. Results are shown and graphed (n=6).\nas §5"}},
  "note": "Read-outs that look alike come from different tables or passages of the source.",
  "data": [
    {"smiles": "NCCC(=O)Nc1ccc(C(=O)Nc2ccc(C(=O)NCCc3ccc4ccccc4c3)cc2OCC2CCCCC2)cc1OCCO", "note": "[TX-542]", "values": [
      {"measurement": "growth inhibition of ER-positive breast cancer", "setting": "[1]", "value": "strong growth inhibition"},
      {"measurement": "specificity for ER-positive cells", "setting": "[1]", "value": "high specificity"},
      {"measurement": "IC50", "setting": "[2]; MCF-7, ZR-75 or T47-D cells expressing MT-ERα, read-out: IC50, antiproliferative", "value": "20 to 50", "unit": "nM"},
      {"measurement": "IC50", "setting": "[2]; MT-ERα alone (ZR-75 and T47-D) or with WT-ERa (MCF-7), read-out: IC50 in multiple MT-ERα models", "value": "< 50", "unit": "nM"},
      {"measurement": "activity against ER-null cells", "setting": "[3]", "value": "no activity"},
      {"measurement": "activity against non-tumorigenic breast epithelial cells", "setting": "[4]", "value": "no activity"},
      {"measurement": "bound to proteins", "setting": "[5]", "value": 75, "unit": "%"},
      {"measurement": "clonogenic survival", "setting": "[6]", "value": "significantly reduced the survival"},
      {"measurement": "soft agar colony formation", "setting": "[7]", "value": "potently reduced soft agar colony formation"},
      {"measurement": "apoptotic cell death", "setting": "[8]", "value": "induced apoptotic cell death"},
      {"measurement": "spheroid size or architecture", "setting": "[9]", "value": "disrupted spheroid architecture"},
      {"measurement": "level in tumor tissue", "setting": "[10]; 24 h after the last dose, daily i.p. 10 mg/kg", "value": "> 0.1", "unit": "mg/g"},
      {"measurement": "time to steady state levels in tumor", "setting": "[10]; MCF-Y537S xenografts, daily i.p. 10 mg/kg", "value": 5, "unit": "days"},
      {"measurement": "half-life", "setting": "[10]; mouse, plasma, intraperitoneal", "value": 8, "unit": "h"},
      {"measurement": "concentration at 24 h", "setting": "[10]; mouse, tumor, intraperitoneal, 10 mg/kg, 24 h after the last dose, read-out: corresponding tumor concentration", "value": "> 200", "unit": "nM"},
      {"measurement": "growth of established xenografts", "setting": "[11]; 10 mg/kg/ip", "value": "potent activity"},
      {"measurement": "mouse body weights", "setting": "[11]; 10 mg/kg/ip", "value": "no effect on mouse body weights"},
      {"measurement": "renal and liver parameters, histopathology, clinical chemistry", "setting": "[11]; treated animals", "value": "lack of change in renal and liver parameters"},
      {"measurement": "onset of effect on MT-ERα levels", "setting": "[12]", "value": "not noticeable until 24 h"},
      {"measurement": "ERE-driven transcription", "setting": "[13]", "value": "decrease transcription"},
      {"measurement": "MT-ERα DNA binding", "setting": "[14]", "value": "blocks both basal and estradiol-induced MT-ERα DNA binding"},
      {"measurement": "invasion of BC cells expressing MT-ERα", "setting": "[15]", "value": "potently affects the invasion"},
      {"measurement": "growth of lung and bone metastasis", "setting": "[16]; 10 mg/kg/ip", "value": "decrease the growth of lung metastasis"},
      {"measurement": "animals that formed mets", "setting": "[16]; within 4 weeks, treatment started immediately after intracardiac injection", "value": "1/6"}
    ]}
  ]
}
